For one data set, the target named is T1, FAAH (Homo sapiens, UniProt O00519).
T1 construct: Reactions were initiated by adding 12.5 μg of brain microsome; tissue ABS, Inc; host or cells: human brain cerebral cortex, membrane/microsome fraction pooled from 3 donors
T1 sequence (O00519 1-579): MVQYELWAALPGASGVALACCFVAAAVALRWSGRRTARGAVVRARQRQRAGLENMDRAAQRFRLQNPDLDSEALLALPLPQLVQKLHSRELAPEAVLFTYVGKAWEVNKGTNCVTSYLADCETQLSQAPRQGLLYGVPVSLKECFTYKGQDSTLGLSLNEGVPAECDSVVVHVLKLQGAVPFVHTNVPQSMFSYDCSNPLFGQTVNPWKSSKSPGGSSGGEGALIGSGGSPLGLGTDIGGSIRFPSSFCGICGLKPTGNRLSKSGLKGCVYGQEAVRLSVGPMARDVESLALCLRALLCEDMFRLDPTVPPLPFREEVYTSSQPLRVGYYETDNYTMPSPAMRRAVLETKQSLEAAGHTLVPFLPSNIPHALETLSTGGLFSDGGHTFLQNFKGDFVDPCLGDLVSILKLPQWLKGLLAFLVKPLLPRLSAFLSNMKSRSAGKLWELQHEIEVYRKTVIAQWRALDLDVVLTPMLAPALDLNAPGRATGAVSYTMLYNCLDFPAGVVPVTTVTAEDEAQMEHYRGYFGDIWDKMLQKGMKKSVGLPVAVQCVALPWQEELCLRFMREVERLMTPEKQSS
Description: FAAH inhibition, human brain membrane homogenate assay. Type of data set: biochemical.

In a further data set the target is T2, hERG channel (Homo sapiens, UniProt Q12809).
T2 construct: expressed in transfected cells; host or cells: CHO (hERG-CHO), under Geneticin selection
Description: hERG channel inhibition, automated patch clamp (IonWorks HT, hERG-CHO). The format is cell-based. As to conditions: CHO cells expressing hERG, 600 s incubation; for inhibition at 600 s, 1 µM: 1 μM compound, read-out: hERG Channel Inhibition % (at 1 μM), vehicle-subtracted values; for inhibition at 600 s, 10 µM: 10 μM compound, read-out: hERG Channel Inhibition % (at 10 μM), vehicle-subtracted values. The procedure, abridged:
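hERG-CHO cells held at 30 °C for 48 h before IonWorks HT patch clamp: from −80 mV to +40 for 2 s, then −50 mV for 2 s tail, repeated three times, before and after 600 s compound exposure. Third-pulse post/pre tail amplitude ratio gave percent inhibition; cells with seal <50 MOhm or tail <250 pA excluded.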
For orientation: The hERG channel carries a current that helps repolarise heart muscle cells.

Setting [1] is: human brain homogenate, average activity, read-out: Human brain Extract FAAH IC50.

Here are results for 7 compounds from patent US20150175599A1, “FAAH Inhibitors” (Ironwood Pharmaceuticals, Inc., priority 2010, published 2015).

What is called IC50 is the concentration that gives 50% inhibition. The term inhibition denotes how much of the control response was suppressed.

Where two headings read alike, the source gives them in different places. Where only a bound is given, the exact number is not on record here.

T2 sequence (Q12809 whole entry): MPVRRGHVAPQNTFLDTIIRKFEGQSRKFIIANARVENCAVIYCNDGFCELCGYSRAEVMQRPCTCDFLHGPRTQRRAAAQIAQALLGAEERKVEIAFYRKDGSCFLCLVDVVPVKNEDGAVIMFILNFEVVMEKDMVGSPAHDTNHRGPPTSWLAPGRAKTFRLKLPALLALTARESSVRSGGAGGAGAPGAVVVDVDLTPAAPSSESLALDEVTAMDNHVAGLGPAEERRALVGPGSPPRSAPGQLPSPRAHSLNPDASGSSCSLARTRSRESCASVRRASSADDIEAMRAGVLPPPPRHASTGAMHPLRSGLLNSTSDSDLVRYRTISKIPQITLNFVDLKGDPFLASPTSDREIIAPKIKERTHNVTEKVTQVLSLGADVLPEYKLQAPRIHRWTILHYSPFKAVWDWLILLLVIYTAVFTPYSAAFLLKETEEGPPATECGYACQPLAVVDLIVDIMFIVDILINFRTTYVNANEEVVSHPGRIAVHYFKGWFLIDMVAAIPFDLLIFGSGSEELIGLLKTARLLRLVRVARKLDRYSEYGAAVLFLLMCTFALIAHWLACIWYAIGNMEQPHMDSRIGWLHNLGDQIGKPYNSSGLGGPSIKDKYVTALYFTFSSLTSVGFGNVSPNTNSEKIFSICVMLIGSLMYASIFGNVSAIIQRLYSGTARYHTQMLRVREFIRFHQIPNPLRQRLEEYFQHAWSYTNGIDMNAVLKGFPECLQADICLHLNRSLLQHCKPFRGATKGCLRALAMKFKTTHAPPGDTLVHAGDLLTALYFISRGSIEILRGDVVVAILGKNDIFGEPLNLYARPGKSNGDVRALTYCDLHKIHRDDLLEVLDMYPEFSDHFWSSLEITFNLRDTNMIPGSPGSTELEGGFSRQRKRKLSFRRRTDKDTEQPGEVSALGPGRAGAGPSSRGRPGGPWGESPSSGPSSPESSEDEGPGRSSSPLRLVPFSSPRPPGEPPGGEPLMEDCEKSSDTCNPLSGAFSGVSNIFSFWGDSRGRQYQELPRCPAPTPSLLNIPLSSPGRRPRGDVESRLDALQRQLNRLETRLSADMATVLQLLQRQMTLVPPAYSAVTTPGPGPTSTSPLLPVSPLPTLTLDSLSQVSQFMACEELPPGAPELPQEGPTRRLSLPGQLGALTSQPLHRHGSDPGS

For the compound `COc1cc(NC(=O)C(=O)c2c(C)n(Cc3ncc(F)cc3F)c3ccc(C)cc23)ccn1` [Compound 88, 2-(1-((3,5-difluoropyridin-2-yl)methyl)-2,5-dimethyl-1H-indol-3-yl)-N-(2-methoxypyridin-4-yl)-2-oxoacetamide], the IC50 at FAAH is under 100 nM. Further, at hERG channel, the inhibition at 600 s, 1 µM is under 25% and the inhibition at 600 s, 10 µM is under 25%.

As to `COc1ccc(Cn2c(C)c(C(=O)C(=O)Nc3ccnc(OC)c3)c3cc(OC)c(C)cc32)nc1` [Compound 96, 2-(5-methoxy-1-((5-methoxypyridin-2-yl)methyl)-2,6-dimethyl-1H-indol-3-yl)-N-(2-methoxypyridin-4-yl)-2-oxoacetamide], on FAAH (setting [1]), the IC50 was under 100 nM. In addition, on hERG channel, the inhibition at 600 s, 1 µM is under 25% and the inhibition at 600 s, 10 µM was under 25%.

Take `COc1cc(NC(=O)C(=O)c2c(C)n(Cc3ncc(Cl)cc3F)c3cc(Cl)c(OC)cc23)ccn1` [Compound 97, 2-(6-chloro-1-((5-chloro-3-fluoropyridin-2-yl)methyl)-5-methoxy-2-methyl-1H-indol-3-yl)-N-(2-methoxypyridin-4-yl)-2-oxoacetamide]: the IC50 at FAAH (setting [1]) is under 100 nM. Further, at hERG channel, the inhibition at 600 s, 1 µM was under 25% and the inhibition at 600 s, 10 µM was under 25%.

With `COc1ccc(Cn2c(C)c(C(=O)C(=O)Nc3ccnc(OC)c3)c3cc(OC)c(Cl)cc32)nc1` [Compound 98, 2-(6-chloro-5-methoxy-1-((5-methoxypyridin-2-yl)methyl)-2-methyl-1H-indol-3-yl)-N-(2-methoxypyridin-4-yl)-2-oxoacetamide], at FAAH (setting [1]), the IC50 is under 100 nM. Moreover, at hERG channel, the inhibition at 600 s, 1 µM is under 25% and the inhibition at 600 s, 10 µM is under 25%.

For the compound `COc1cc(NC(=O)C(=O)c2c(C)n(Cc3ncc(Cl)cc3F)c3cc(F)c(OC)cc23)ccn1` [Compound 99, 2-(1-((5-chloro-3-fluoropyridin-2-yl)methyl)-6-fluoro-5-methoxy-2-methyl-1H-indol-3-yl)-N-(2-methoxypyridin-4-yl)-2-oxoacetamide], on FAAH (setting [1]), the IC50 was under 100 nM. Further, at hERG channel, the inhibition at 600 s, 1 µM is under 25% and the inhibition at 600 s, 10 µM was under 25%.

Regarding `COc1ccc2c(c1)c(C(=O)C(=O)Nc1ccnc(OC)c1)c(C)n2Cc1ncc(Cl)cc1OC` [Compound 100, 2-(1-((5-chloro-3-methoxypyridin-2-yl)methyl)-5-methoxy-2-methyl-1H-indol-3-yl)-N-(2-methoxypyridin-4-yl)-2-oxoacetamide], at FAAH (setting [1]), the IC50 was 100 to 1000 nM. Further, on hERG channel, the inhibition at 600 s, 1 µM was under 25% and the inhibition at 600 s, 10 µM is under 25%.

Consider `COc1cc(NC(=O)C(=O)c2c(C)n(Cc3ncc(F)cc3F)c3cc(F)c(OC)cc23)ccn1` [Compound 101, 2-(1-((3,5-difluoropyridin-2-yl)methyl)-6-fluoro-5-methoxy-2-methyl-1H-indol-3-yl)-N-(2-methoxypyridin-4-yl)-2-oxoacetamide], for which the IC50 at FAAH (setting [1]) was under 100 nM. On hERG channel, the inhibition at 600 s, 1 µM is under 25% and the inhibition at 600 s, 10 µM was under 25%.
